From ChEMBL document CHEMBL1201862, “PubChem BioAssay data set” (2004)
“And” between values parts separate entries of the source, which are not always exact repeats. Identical values can stand only once. Counter-ions that a name gives are not always drawn.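 Following 48 hours of exposure in 96-well plates, responses at five concentrations were used to interpolate endpoints linearly. Abbreviation: GI50, concentration required for 50% inhibition of growth.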 The source made the active and inactive calls. Rule as the data show it: active = GI50 up to about 1.1 µM and inactive = higher.

How the values were obtained:
Assay in all cases: growth of human tumour cells (NCI), 48 h
[1] = system: OVCAR-8
[2] = system: HOP-92
[3] = system: A549
[4] = system: SNB-75
[5] = system: EKVX
[6] = system: Malme-3M
[7] = system: SK-MEL-28
[8] = system: LOX IMVI
[9] = system: PC-3
[10] = system: TK-10
[11] = system: OVCAR-5
[12] = system: NCI-H460
[13] = system: NCI-H226
[14] = system: HT-29
[15] = system: ACHN
[16] = system: HOP-62
[17] = system: U-251
[18] = system: MDA-N
[19] = system: OVCAR-3
[20] = system: MDA-MB-435

Measured: GI50

Cc1cn(CC2=NCC(C)N2)c(=O)[nH]c1=O (configuration not stated)
inactive: [1] > 100 µM | [2] > 100 µM | [3] > 100 µM | [4] > 100 µM | [5] > 100 µM | [6] > 100 µM | [7] > 100 µM | [8] > 100 µM | [9] > 100 µM | [10] > 100 µM | [11] > 100 µM | [12] > 100 µM | [13] > 100 µM | [14] > 100 µM | [15] > 100 µM | [16] > 100 µM | [17] > 100 µM | [18] > 100 µM

COc1cc2nc(-c3ccc4ccccc4c3)nc(O)c2cc1OC
inactive: [1] 43.2 µM | [2] 37.5 µM | [19] > 100 µM | [3] > 100 µM | [4] 13.8 µM | [5] > 100 µM | [6] 49.2 µM | [8] > 100 µM | [9] > 100 µM | [11] > 100 µM | [12] > 100 µM | [13] > 100 µM | [14] > 100 µM | [15] 48.8 µM | [16] 19 µM | [18] > 100 µM

Nc1nc[n+](Cc2ccccc2CCO)c2[nH]cnc12
inactive: [1] > 100 µM | [2] > 100 µM | [19] > 100 µM | [3] > 100 µM | [4] > 100 µM | [5] > 100 µM | [6] > 100 µM | [7] > 100 µM | [8] > 100 µM | [10] > 100 µM | [11] > 100 µM | [12] > 100 µM | [13] 36.5 µM | [14] > 100 µM | [15] > 100 µM | [16] > 100 µM | [17] > 100 µM

COc1ccc2nc(NC(=O)C(=O)C(C#N)c3ccc(CC#N)cc3)sc2c1 (configuration not stated)
inactive: [1] > 100 µM | [2] 96.8 µM | [19] > 100 µM | [3] > 100 µM | [4] > 100 µM | [5] 33.5 µM | [6] > 100 µM | [7] > 100 µM | [8] > 100 µM | [10] > 100 µM | [11] > 100 µM | [12] > 100 µM | [13] > 100 µM | [14] > 100 µM | [15] > 100 µM | [16] > 100 µM | [17] > 100 µM

C(=C\c1ccccc1)/Cn1nc(-c2ccccc2)nc1-c1cnccn1
inactive: [1] > 100 µM | [2] 35.9 µM | [19] > 100 µM | [3] > 100 µM | [4] 18.7 µM | [5] > 100 µM | [7] > 100 µM | [8] > 100 µM | [9] > 100 µM | [10] > 100 µM | [11] > 100 µM | [12] > 100 µM | [14] > 100 µM | [16] > 100 µM | [17] > 100 µM | [18] > 100 µM | [20] > 100 µM

O=C(CCc1nnc2s/c(=C\c3ccc4c(c3)OCO4)c(=O)n12)Nc1cc(Cl)ccc1Cl
inactive: [1] > 100 µM | [2] > 100 µM | [19] > 100 µM | [3] > 100 µM | [4] > 100 µM | [5] > 100 µM | [6] > 100 µM | [7] > 100 µM | [8] > 100 µM | [10] > 100 µM | [11] > 100 µM | [12] > 100 µM | [13] > 100 µM | [14] > 100 µM | [15] > 100 µM | [16] > 100 µM | [17] > 100 µM

O=C1C=CC(=O)c2c(NCC3CC3)ccc(NCC3CC3)c21
inactive: [1] 56.2 µM | [19] 26.7 µM | [3] 47.8 µM | [5] 29 µM | [6] 19.8 µM | [7] 28.6 µM | [8] 20.7 µM | [9] 46.2 µM | [10] > 100 µM | [11] 59 µM | [12] 60.8 µM | [14] 32.2 µM | [15] 39.9 µM | [16] > 100 µM | [17] 55.7 µM | [20] 19.7 µM

CC(=O)/C(=C/NC(=S)N/N=C1\C(=O)Nc2ccccc21)C(=O)Nc1ccccc1C
inactive: [1] > 100 µM | [2] > 100 µM | [19] 75.2 µM | [3] > 100 µM | [4] 52.4 µM | [5] 70.6 µM | [7] > 100 µM | [8] 63.8 µM | [10] > 100 µM | [11] > 100 µM | [12] > 100 µM | [13] > 100 µM | [14] > 100 µM | [15] 96.2 µM | [16] > 100 µM | [17] > 100 µM | [18] > 100 µM | [20] > 100 µM

Cc1ccc(C(=O)/C=C2\Nc3ccccc3S\C2=N\CS(=O)(=O)c2ccc(C)cc2)cc1
inactive: [1] > 10 µM | [2] > 10 µM | [19] 4.33 µM | [3] > 10 µM | [4] > 10 µM | [6] > 10 µM | [7] > 10 µM | [8] > 10 µM | [9] > 10 µM | [10] > 10 µM | [11] > 10 µM | [14] > 10 µM | [15] > 10 µM | [16] 7.8 µM | [17] > 10 µM | [18] > 10 µM | [20] > 10 µM

CNC(=O)NCCCCC(NC(=O)OCc1ccccc1)C(=O)OCc1ccccc1 (configuration not stated)
inactive: [1] 29.4 µM | [2] 36 µM | [19] 16.1 µM | [3] 31.6 µM | [4] 20.2 µM | [5] 98.9 µM | [6] 14.4 µM | [7] 21.1 µM | [8] 16.7 µM | [10] 21.9 µM | [11] 46 µM | [12] 31.7 µM | [13] 60.3 µM | [14] 71.4 µM | [15] 19.1 µM | [16] 8.81 µM | [17] 23.9 µM

CN(C)CCCN1c2ccccc2Sc2ccc(C(F)(F)F)cc21 [TRIFLUPROMAZINE HYDROCHLORIDE]
inactive: [1] 15.6 µM | [2] 12.3 µM | [3] 17 µM and 16.9 µM | [4] 12.1 µM and 12.2 µM | [5] 17.6 µM and 15.7 µM | [6] 16.4 µM and 14.9 µM | [7] 16.3 µM and 14.8 µM | [8] 15.5 µM and 13.9 µM | [9] 15.2 µM | [10] 17.4 µM and 15.2 µM | [11] 17.1 µM | [12] 16.4 µM and 15 µM | [14] 11.4 µM | [15] 14.9 µM and 15.4 µM | [17] 14.2 µM and 15.7 µM | [18] 13.4 µM | [20] 15.8 µM
